# In patent publication US5208344A, “Naphthalenepropionic acid derivatives as anti-inflammatory/antiallergic agents” (American Home Products Corporation, priority 1991, dated 1993):
# Experiments:
# 5-lipoxygenase [1] = molecular target: T1, 5-lipoxygenase (Rattus norvegicus, UniProt P12527); assay: inhibition of 5-HETE synthesis by rat glycogen elicited polymorphonuclear leukocytes; format: cell-based; settings: rat PMN, read-out: % Inhibition of 5-LO (as 5-HETE); for inhibition at 10 µM: negative = potentiation of 5-HETE synthesis
# T1 construct: Peritoneal PMN are obtained from female Wistar rats (150-250 g); endogenous in cells; host or cells: rat glycogen-elicited peritoneal polymorphonuclear leukocytes, intact
# T1 sequence (P12527 1-673): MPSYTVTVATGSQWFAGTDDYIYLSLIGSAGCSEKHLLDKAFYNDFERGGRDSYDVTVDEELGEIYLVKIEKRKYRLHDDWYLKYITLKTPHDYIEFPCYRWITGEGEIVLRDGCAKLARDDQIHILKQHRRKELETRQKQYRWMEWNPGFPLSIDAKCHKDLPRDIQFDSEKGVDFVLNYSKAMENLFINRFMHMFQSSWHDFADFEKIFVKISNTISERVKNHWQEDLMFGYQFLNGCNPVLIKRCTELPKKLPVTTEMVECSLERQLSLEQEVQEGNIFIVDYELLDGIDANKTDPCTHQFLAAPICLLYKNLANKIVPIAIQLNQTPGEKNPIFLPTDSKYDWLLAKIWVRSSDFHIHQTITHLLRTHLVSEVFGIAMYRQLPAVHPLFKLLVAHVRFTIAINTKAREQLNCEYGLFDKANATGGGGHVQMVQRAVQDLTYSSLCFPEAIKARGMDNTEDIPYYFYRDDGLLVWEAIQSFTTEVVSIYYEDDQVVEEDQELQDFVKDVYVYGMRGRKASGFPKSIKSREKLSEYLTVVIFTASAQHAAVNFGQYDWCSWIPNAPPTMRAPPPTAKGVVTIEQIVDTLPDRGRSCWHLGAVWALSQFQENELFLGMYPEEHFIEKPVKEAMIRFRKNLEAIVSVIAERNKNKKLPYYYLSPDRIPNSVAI
# Protocol: The assay of this Example measures the ability of the compounds of the invention to inhibit the synthesis of 5-HETE by rat glycogen elicited polymorphonuclear leukocytes.
# (§1) Peritoneal PMN are obtained from female Wistar rats (150-250 g) that received an i.p. injection of 6% glycogen (10 ml). After 24 hours, rats are killed by CO2 asphysiation and peritoneal cells are harvested by peritoneal lavage using Ca^++ and MG^++ free Hanks' balanced salt solution (HBSS). The peritoneal exudate is centrifuged at 400 g for 10 minutes. After centrifugation, the lavaged fluid is removed and the cell pellet is resuspended in HBSS containing Ca^++ and MG^++ and 10 mM L-cysteine at a concentration of 2×10^7 cells/ml. To 1 ml portions of cell suspension, test drugs or vehicle are added and incubated at 37° C. for 10 minutes. Following this preincubation, the calcium ionophore (10 μM), a23187, is added together with 0.5 μM [14 C] arachidonic acid and further incubated for 10 minutes. The reaction is stopped by the addition of ice cold water (3 ml) and acidifying to pH 3.5. Lipoxygenase products are then extracted twice into diethyl ether. The pooled ether extracts are evaporated to dryness under nitrogen and the residue is redissolved in a small volume of methanol and spotted on aluminum backed pre-coated thin layer chromatographic plates. The samples are then cochromatographed with authentic reference 5-HETE in the solvent system - hexane: ether: acetic acid (50:50:3). After chromatography, the areas associated with 5-HETE standard are identified by autoradiography, cut out and quantitated by liquid scintillation.
# 5-lipoxygenase [2] = molecular target: T2, 5-lipoxygenase (Homo sapiens, UniProt P09917); assay: inhibition of 5-lipoxygenase in human whole blood (LTB4); format: cell-based; settings: human whole blood
# T2 construct: Blood is obtained in 50-100 ml quantities from male donors; endogenous in cells; host or cells: human whole blood (leukocytes) from male donors
# T2 sequence (P09917 1-674): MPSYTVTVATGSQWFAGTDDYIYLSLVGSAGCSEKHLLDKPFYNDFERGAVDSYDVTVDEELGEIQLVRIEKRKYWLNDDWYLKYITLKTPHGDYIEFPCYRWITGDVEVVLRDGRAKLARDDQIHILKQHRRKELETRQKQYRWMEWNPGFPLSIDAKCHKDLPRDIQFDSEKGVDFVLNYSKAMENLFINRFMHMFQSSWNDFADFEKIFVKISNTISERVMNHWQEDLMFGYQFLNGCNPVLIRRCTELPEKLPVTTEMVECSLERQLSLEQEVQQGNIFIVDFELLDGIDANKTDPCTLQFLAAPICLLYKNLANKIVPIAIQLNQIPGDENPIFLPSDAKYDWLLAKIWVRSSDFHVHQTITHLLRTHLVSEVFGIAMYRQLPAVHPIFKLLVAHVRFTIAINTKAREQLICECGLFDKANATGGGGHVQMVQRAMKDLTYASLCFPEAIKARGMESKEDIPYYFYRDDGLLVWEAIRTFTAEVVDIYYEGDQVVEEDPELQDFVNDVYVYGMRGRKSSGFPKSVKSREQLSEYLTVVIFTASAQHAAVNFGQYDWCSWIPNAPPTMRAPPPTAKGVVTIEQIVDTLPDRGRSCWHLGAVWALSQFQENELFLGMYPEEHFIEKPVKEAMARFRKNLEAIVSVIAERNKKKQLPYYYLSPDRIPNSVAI
# Protocol: The assay of this Example measures the ability of the compounds tested to inhibit 5-lipxygenase in human whole blood.
# Blood is obtained in 50-100 ml quantities from male donors. White blood cell counts and differentials are made. Two ml of blood are placed in a 15 ml polypropylene test tube. Compounds are solubilized in dimethylsulfoxide and diluted 1:10 in 10% bovine serum albumin in phosphate buffered saline, pH 7.4 resulting in a final dimethylsulfoxide concentration of 0.1% in the blood. Then, compounds are added to the blood in a shaking water bath at 37° C. for 10 minutes prior to the addition of 30 μM calcium ionophore (A23187; Sigma). After ionophore administration, whole blood samples are mixed and incubated for 20 minutes at 37° C. in a shaking water bath. Incubation is terminated by placing samples in an ice bath and immediately adding ethylene glycol-bis-(β-aminoethyl ether)-N,N,N',N'-tetraacetic acid (10 mM). Samples are mixed and centrifuged at 1200×g for 15 minutes at 4° C. Preparation of samples for evaluation by RIA or ELISA is carried out by the following protocol. Plasma is removed from sample tubes, placed in 15 ml polypropylene test tubes containing 8 ml methanol, and then vortexed to precipitate protein. Samples are stored at -70° C. overnight. The next day, samples are centrifuged at 200×g for 15 minutes at 4° C. to pellet the precipitate. Samples are dried in a Savant speed vac concentrator, reconstituted to original volume with ice cold RIA or ELISA buffer, and stored at -70° C. until assayed. The assay for eicosanoids (LTB4, TxB2, and PGE2) is performed as described by the manufacturer of the [^3 H]-RIA kit or ELISA kit (LTB4 -Amersham, TxB2 and PGE2 - Caymen Chemical).
# The total eicosanoid level in 2 ml of blood is calculated and reported as ng/10^6 neutrophils. Significance is determined by a one-way analysis of variance with least significant difference (LSD) comparisons to control (p≤0.05) and IC50 's (μM) are determined by regression analysis (Finney, 1978). Drug effects are expressed as percent change form control values.
# Compounds tested in vitro are solubilized in dimethylsulfoxide and diluted 1:10 in 10% bovine serum albumin in phosphate buffer saline resulting in a final dimethylsulfoxide concentration of 0.1% in the blood.
# cyclooxygenase = assay: inhibition of synthesis of cyclooxygenase products TxB2 and PGE2 (rat polymorphonuclear leukocytes); format: cell-based; settings: rat PMN, negative = potentiation of PGE2 synthesis
# Protocol: as §1
# However, in order to determine cyclooxygenase activity, the samples are cochromatographed with authentic reference TxB2 and PGE2 in the solvent system ethyl acetate: formic acid (80:1) and the upper phase of ethyl acetate: isooctane: acetic acid: water (110:50:20:100). After chromatography, the areas associated with the TxB2 and PGE2 standards are identified by autoradiography, cut out and quantitated by liquid scintillation techniques.
# [3] = test system: inflammatory mediator release; assay: reverse passive Arthus pleurisy assay, inflammatory mediator release; format: in vivo, rat; settings: for % Inh LTB4: 10 mg/kg p.o.; for ED50: Rattus norvegicus, po, read-out: ED50 TxB2; for ED50 LTB4: 10 min
# Protocol: The compounds of the invention are further tested in the reverse passive Arthus pleurisy assay to evaluate their effectiveness in inflammatory mediator release and/or the fluid and cellular phases of an inflammatory response.
# A reverse passive Arthus reaction is induced in the pleural cavity of male Lewis rats (150-200 g; fasted overnight prior to use) by the intravenous administration of bovine serum albumin (BSA; 4 mg/0.2 ml) followed 30 minutes later by the injection of rabbit anti-BSA (1 mg/0.2 ml; lyophilized IgG fraction; Organon Teknika, West Chester, PA) into the right pleural space under halothane anesthesia. […] Animals are sacrificed at either the time of peak eicosanoid production (i.e. 5 minutes after anti-BSA for immunoreactive TxB2, 10 minutes for immunoreactive LTB4, 20 minutes for immunoreactive LTC4) or at the time of peak neutrophil infiltration (4 hours after anti-BSA) by CO2 inhalation. The pleural cavity is then exposed, the fluid exudate removed by gentle vacuum aspiration and the volume of exudate is recorded. For the determination of cellular infiltration, the pleural cavity is rinsed with 3 ml of 0.1% EDTA in sterile saline, and the recovered wash is pooled with the exudate. Cell number is determined on a model ZBI Coulter counter. For determination of eicosanoid production, undiluted pleural exudate is microfuged and the supernatant is extracted with ethanol (8-10 times volume). Extracts are either stored at -20° C., or are evaporated to dryness under a stream of N2 and reconstituted in radioimmunoassay (RIA) buffer.
# Eicosanoids are quantitated by RIA according to the procedure specified by the RIA kit manufacturer (Advanced Magnetics, Cambridge, MA). Briefly, 100 μl of ^3 H-labeled eicosanoid and 100 μl of specific antibody are sequentially added to 100 μl of extracted pleural exudate in BGG-phosphate buffer which contains 0.01 M phosphate, 0.1% bovine gamma globulin and 0.1% sodium azide at pH 7.0. Antibody-bound eicosanoid is separated form unbound eicosanoid by the addition of 750 μl of dextran (0.4%)-coated charcoal (0.4% Norit A) containing 0.1% sodium azide. The mixture is centrifuged at 2000 RPM at 5° C. for 15 minutes to pellet the charcoal and adsorbed unbound eicosanoid. Antibody-bound labeled eicosanoid is quantitated by counting in a liquid scintillation counter, and is correlated to concentration by a standard curve.
# Inflammatory cells are expressed as 10^6 cells/ml, pleural exudate is expressed as ml of fluid, and the amount of eicosanoids in the pleural cavity is expressed as ng/ml of exudate. Mean±S.E.M. is determined for each group. Percent inhibition (% I) of cell number, exudate volume and eicosanoid production is calculated for vehicle-treated control groups, and the responses in drug-treated rats are then expressed as the mean $ I of control.
# [4] = p.o., 1 hour prior to anti-BSA, rat
smiles,measurement,setting,value
"C[C@H](CO)c1ccc2cc(OCc3ccc4ccccc4n3)ccc2c1 [Example 26, (S)-β-methyl-6-(2-quinolinylmethoxy)-2-naphthalene ethanol]",inhibition at 10 µM,5-lipoxygenase [1],97%
same,inhibition at 100 µM,5-lipoxygenase [2]; 100 μM,8%
same,% Inhibition of CO (as PGE2),cyclooxygenase; 10 μM,5%
"CC(C(=O)N(C)O)c1ccc2cc(OCc3ccc4ccccc4n3)ccc2c1 (stereo not drawn) [Example 23, N-Hydroxy-α-N-dimethyl-6-(2-quinolinylmethoxy)-2-naphthaleneacetamidedihydrate]",inhibition at 10 µM,5-lipoxygenase [1],75%
same,inhibition at 5 µM,"5-lipoxygenase [2]; 5 μM, read-out: % Inhibition of LTB4",45%
same,% Inhibition of CO (as PGE2),cyclooxygenase; 10 μM,17%
"CONC(=O)C(C)c1ccc2cc(OCc3ccc4ccccc4n3)ccc2c1 (stereo not drawn) [Example 30, N-methoxy-α-methyl-6-(2-quinolinylmethoxy)-2-naphthaleneacetamide]",inhibition at 10 µM,5-lipoxygenase [1],92%
same,inhibition at 50 µM,5-lipoxygenase [2],13%
same,% Inhibition of CO (as PGE2),cyclooxygenase; 10 μM,-27%
"Cc1ccc(S(=O)(=O)NC(=O)C(C)c2ccc3cc(OCc4ccc5ccccc5n4)ccc3c2)cc1 (stereo not drawn) [Example 25, α-Methyl-N-[(4-methylphenyl)sulfonyl]-6-(2-quinolinylmethoxy)-2-naphthaleneacetamide]",inhibition at 10 µM,5-lipoxygenase [1],100%
same,inhibition at 25 µM,5-lipoxygenase [2]; 25 μM,45%
same,% Inhibition of CO (as PGE2),cyclooxygenase; 10 μM,-103%
"C[C@@H](C(=O)O)c1ccc2cc(OCc3ccc4ccccc4n3)ccc2c1 [Example 8, R-(-)-α-Methyl-6-(2-quinolinylmethoxy)-2-naphthaleneacetic acid]",inhibition at 0.1 µM,5-lipoxygenase [1]; 0.1 μM,33%
same,% Inhibition of CO (as PGE2),cyclooxygenase; 0.1 μM,-7%
O=C(O)Cc1ccccc1Nc1c(Cl)cccc1Cl [Diclofenac],% Inh LTB4,[3]; rat,0%
same,ED50,[3]; 5 min,6 mg/kg
"COC(=O)[C@@H](C)c1ccc2cc(OCc3ccc4ccccc4n3)ccc2c1 [Example 29, (S)α-methyl-6-(2-quinolinylmethoxy)-2-naphthaleneacetic acid methyl ester]",inhibition at 10 µM,5-lipoxygenase [1],91%
same,inhibition at 50 µM,5-lipoxygenase [2],24%
same,% Inhibition of CO (as PGE2),cyclooxygenase; 10 μM,-17%
"CC(C(=O)O)c1ccc2cc(OCc3csc(-c4ccccc4)n3)ccc2c1 (stereo not drawn) [Example 9, α-Methyl-6-[(2-phenyl-4-thiazolyl)methoxy]-2-naphthaleneacetic acid]",inhibition at 10 µM,5-lipoxygenase [1],86%
same,% Inhibition of CO (as PGE2),cyclooxygenase; 10 μM,-11%
CC(C(=O)O)c1cccc(C(=O)c2ccccc2)c1 (centres unmarked) [Ketoprofen],% Inh LTB4,[3]; rat,35%
same,ED50,[3]; 5 min,0.18 mg/kg
CN=C1CCN(c2cccc(C(F)(F)F)c2)N1 [BW540C],ED50 TxB2,"[3]; p.o., 1 hour prior to anti-BSA, rat, 5 min",19 mg/kg
same,ED50 LTB4,[3]; [4],30 mg/kg
"C[C@H](C(=O)O)c1ccc2cc(OCc3ccc4ccccc4n3)ccc2c1.NC(CO)(CO)CO [Wy-50,295-A]",% Inh TxB2,"[3]; 75 mg/kg p.o., rat",0%
same,ED50 LTB4,[3]; [4],15 mg/kg
"CC(C(=O)O)c1ccc2cc(OCC=Cc3ccccc3)ccc2c1 (stereo not drawn) [Example 20, α-Methyl-6-[(3-phenyl-2-propenyl)oxy]-2-naphthaleneacetic acid]",inhibition at 10 µM,5-lipoxygenase [1],89%
same,% Inhibition of CO (as PGE2),cyclooxygenase; 10 μM,14%
